# Article PMC11177801 (Journal of medicinal chemistry, 2015)
# Where two headings read alike, the source gives them in different places.
# Assays:
# HepG2 cytotoxicity assay = format: cell-based; conditions: human, cytotoxicity (IC50 in nM) HepG2, HepG2 cells
# [1] = system: P. falciparum chloroquine-resistant (CQR) 7G8 strain; experiment: microbe, parasite or virus in culture; format: cell-based; conditions: Plasmodium falciparum, 7G8, read-out: antimalarial activity (IC50 in nM) 7G8
# [2] = system: P. falciparum chloroquine-resistant (CQR) Dd2 strain; experiment: microbe, parasite or virus in culture; format: cell-based; conditions: Plasmodium falciparum, DD2, read-out: antimalarial activity (IC50 in nM) Dd2
# [3] = system: P. falciparum chloroquine-sensitive (CQS) D6 strain; experiment: Malaria SYBR Green I-based Fluorescence; format: cell-based, Plasmodium falciparum
# [4] = system: multidrug-resistant P. yoelii; conditions: 100 mg/kg/day, oral route; cited from earlier work
# [5] = system: P. yoelii (Kenya strain, MR4 MRA-428); experiment: In vivo efficacy against murine malaria, modified 4-day test, oral gavage; conditions: mice
# [6] = Plasmodium falciparum, D6, read-out: antimalarial activity (IC50 in nM) D6
Structure (SMILES),IC50 [1],IC50 [2],"IC50 [3, 6]",further results
"OC(c1cc(C(F)(F)F)nc2c(C(F)(F)F)cccc12)C1CCCCN1 (stereo not shown) [MQ, mefloquine]",,,,IC50 (HepG2 cytotoxicity assay): 21800 nM
"c1c[nH]c(CNCCNC23CC4CC(CC(C4)C2)C3)c1 [Compound 191, N^1-((Pyrrol-2-yl)methyl)-N^2-(adamantan-1-yl)ethane-1,2-diamine]",> 2500 nM,> 2500 nM,> 2500 nM,
"CCC1CCCCCCCCC2=N/C(=C\c3[nH]c(-c4ccc[nH]4)cc3OC)C1=C2 (stereo not shown) [Compound 3b, metacycloprodiginine]",,,,mice cured [4]: three of four
"O=C(CNC(=O)c1ccc[nH]1)NC12CC3CC(CC(C3)C1)C2 [Compound 190, N-(2-((Adamantan-1-yl)amino)-2-oxoethyl)-pyrrole-2-carboxamide]",> 2500 nM,> 2500 nM,> 2500 nM,
"COC1=CC(c2cccn2C)=NC1=Cc1c(Cc2ccc(Cl)cc2)cc(Cc2ccc(Cl)cc2)n1C [Compound 87, 5’-((3,5-Bis(4-chlorobenzyl)-1-methyl-pyrrol-2-yl)methylene)-4’-methoxy-1-methyl-2,2’-bipyrrole]",> 2500 nM,> 2500 nM,> 2500 nM,
O=C(C=Cc1ccc[nH]1)NCC(=O)NC12CC3CC(CC(C3)C1)C2 [Compound 194],,,,IC50 ([3]; read-out: antimalarial activity (IC50 in nM) D6): > 2500 nM
"CCCCCCCCCCCC1=N/C(=C\c2[nH]c(-c3ccc[nH]3)cc2OC)C=C1 [Compound 1a, undecylprodiginine, reference compound]",7 nM,7.5 nM,7.2 nM,
"c1c[nH]c(CCCNCCNC23CC4CC(CC(C4)C2)C3)c1 [Compound 196, N^1-(3-(Pyrrol-2-yl)propyl)-N^2-(adamantan-1-yl)ethane-1,2-diamine]",> 2500 nM,> 2500 nM,> 2500 nM,
"CCN(CC)CCCC(C)Nc1ccnc2cc(Cl)ccc12 (stereo not shown) [CQ, chloroquine]",130 nM,115 nM,13 nM,% suppression of parasitaemia on day 5 ([5]; 1 mg/kg × 4 days): 65%; % suppression of parasitaemia on day 5 ([5]; 4 mg/kg × 4 days): 94%; % suppression of parasitaemia on day 5 ([5]; 16 mg/kg × 4 days): 100%; % suppression of parasitaemia on day 5 ([5]; 64 mg/kg × 4 days): 100%
